Values quoted from earlier work as cited in patent publication US20140343147A1, “NUTRITIONAL SUPPLEMENT FOR THE ENHANCEMENT OF MUSCLE PERFORMANCE AND RECOVERY AND METHODS OF USE THEREOF” (Maximum Human Performance, LLC, priority 2011, published 2014).

Tests used:
rats = conditions: daily dose
humans = conditions: daily dose
mice = conditions: iv. in mice, Na-salt
[1] = colorless crystals; water and alcohol

SMILES	luteinizing hormone levels (rats)	testosterone levels (rats)	luteinizing hormone levels (humans)	testosterone levels (humans)	LD50 (mice)	solubility [1]
N[C@H](CC(=O)O)C(=O)O [D-aspartic acid]	increase	increase	increase	increase		
CC(C)CC(O)C(=O)O (stereo not drawn) [HICA, 2-hydroxy-4-methylvaleric acid]					650 mg/kg	soluble in water and alcohol
